From patent publication US5332731A, “Cephalosporin derivatives” (Meiji Seika Kaisha, Ltd., priority 1989, dated 1994)
≈ marks a conversion by molar mass, not a printed value.

Tests used:
oral toxicity in mice = details: mouse, in vivo, oral administration, read-out: oral dosage tolerated without exhibiting toxic symptoms
Method: The new cephalosporin derivative of this invention may be administered orally at a unit dose of 100 mg to 250 mg to an adult human patient four times a day, for a guideline. However, precise dosage of the new cephalosporin is determinable through preliminary routine experiments, depending on the body weight, ages, sex and other various parameters of patients as well as the nature of the bacterial infections to be treated, and so on.

[1] = test system: Citrobacter freundii GN346/16; assay: antibacterial activity, MIC by standard serial dilution method; type: cell-based
From the text: (§1) Antibacterial activity of Compounds Nos. 1, 3, 5, 7, 9, 11, 13, 15, 17, 19, 21, 23, 25, 27, 29, 31, 33, 35 and 37 indentified hereinbefore which are the particular examples of the new cephalosporin derivative of general formula (I) according to this invention and which are in the form of the free carboxylic acid was estimated by determining the minimum inhibitory concentrations (MIC., μg/ml) of these compounds against a variety of bacteria according to a standard serial dilution method.

[2] = test system: Citrobacter freundii GN346; assay: as above; type: cell-based
From the text: as §1

[3] = test system: Enterobacter cloacae G-0008; assay: as above; type: cell-based; details: G0008
From the text: as §1

[4] = test system: Enterobacter cloacae GN7471; assay: as above; type: cell-based
From the text: as §1

[5] = test system: Enterobacter hirae ATCC8043; assay: as above; type: cell-based
From the text: as §1

[6] = test system: Entrobacter faecalis W-73; assay: as above; type: cell-based
From the text: as §1

Escherichia coli 255/S-1 = assay: as above; type: cell-based; details: 255/S1
From the text: as §1

Escherichia coli 255 = assay: as above; type: cell-based
From the text: as §1

Escherichia coli GN206 = assay: as above; type: cell-based
From the text: as §1

[7] = test system: Escherichia coli NIHJ JC-2; assay: as above; type: cell-based; details: NIHJJC2
From the text: as §1

[8] = test system: Escherichia coli W3630 RGN823; assay: as above; type: cell-based; details: W3630RGN823
From the text: as §1

[9] = test system: Klebsiella pneumoniae GN69; assay: as above; type: cell-based
From the text: as §1

[10] = test system: Klebsiella pneumoniae PCI602; assay: as above; type: cell-based
From the text: as §1

[11] = test system: Marganella morganii 1510/S-1; assay: as above; type: cell-based
From the text: as §1

Marganella morganii 1510 = assay: as above; type: cell-based
From the text: as §1

[12] = test system: Proteus vulgaris GN76/C-1; assay: as above; type: cell-based
From the text: as §1

Proteus vulgaris GN76 = assay: as above; type: cell-based
From the text: as §1

[13] = test system: Pseudomonas aeruginosa GN10362; assay: as above; type: cell-based
From the text: as §1

[14] = test system: Serratia marcescens GN10857; assay: as above; type: cell-based
From the text: as §1

[15] = test system: Serratia marcescens No. 1; assay: as above; type: cell-based
From the text: as §1

[16] = test system: Staphylococcus aureus 209P JC-1; assay: as above; type: cell-based
From the text: as §1

[17] = test system: Staphylococcus epidermidis ATCC14990; assay: as above; type: cell-based
From the text: as §1

SMILES | MIC [1] [µg/mL] | MIC [2] [µg/mL] | MIC [3] [µg/mL] | MIC [4] [µg/mL] | MIC [5] [µg/mL] | MIC [6] [µg/mL] | MIC (Escherichia coli 255/S-1) [µg/mL] | MIC (Escherichia coli 255) [µg/mL] | MIC (Escherichia coli GN206) [µg/mL] | MIC [7] [µg/mL] | MIC [8] [µg/mL] | MIC [9] [µg/mL] | MIC [10] [µg/mL] | MIC [11] [µg/mL] | MIC (Marganella morganii 1510) [µg/mL] | MIC [12] [µg/mL] | MIC (Proteus vulgaris GN76) [µg/mL] | MIC [13] [µg/mL] | MIC [14] [µg/mL] | MIC [15] [µg/mL] | also measured
CO/N=C(\C(=O)NC1C(=O)N2C(C(=O)OCOC(=O)C(C)(C)C)=C(SCC3CCOC3)CS[C@H]12)c1csc(N)n1 (stereo partly drawn) [Compound No. 28, pivaloyloxymethyl 7-[(Z)-2-(2-aminothiazol-4-yl)-2-methoxyiminoacetamido]-3-(tetrahydrofuran-3-yl) methylthio-3-cephem-4-carboxylate] |  |  |  |  |  |  |  |  |  |  |  |  |  |  |  |  |  |  |  |  | NOAEL (oral toxicity in mice): 3000 mg/kg
CO/N=C(\C(=O)NC1C(=O)N2C(C(=O)O)=C(SCC3COCO3)CS[C@H]12)c1csc(N)n1 (stereo partly drawn) [Compound No. 29, 7 - [(Z)-2-(2-aminothiazol-4-yl)-2-methoxyiminoacetamido]-3-(1,3-dioxolan-4-yl)methylthio-3-cephem-4-carboxylic acid] | 3.13 (≈ 6.24 µM) | > 100 | 0.39 (≈ 0.778 µM) | 50 (≈ 99.7 µM) | > 100 | > 100 | 0.39 (≈ 0.778 µM) | 50 (≈ 99.7 µM) | 6.25 (≈ 12.5 µM) | 0.39 (≈ 0.778 µM) | 0.78 (≈ 1.56 µM) | 0.2 (≈ 0.399 µM) | 0.2 (≈ 0.399 µM) | 0.39 (≈ 0.778 µM) | 50 (≈ 99.7 µM) | 6.25 (≈ 12.5 µM) | 0.1 (≈ 0.199 µM) | > 100 | 50 (≈ 99.7 µM) | 3.13 (≈ 6.24 µM) | MIC [16]: 1.56 µg/mL (≈ 3.11 µM); MIC [17]: 0.78 µg/mL (≈ 1.56 µM)
CO/N=C(\C(=O)NC1C(=O)N2C(C(=O)O)=C(SCC3CCOCC3)CS[C@H]12)c1csc(N)n1 (stereo partly drawn) [Compound No. 31, 7-[(Z)-2-(2-aminothiazol-4-yl)-2-methoxyiminoacetamido]-3-(tetrahydropyran-4-yl)methylthio-3-cephem-4-carboxylic acid] | 3.13 (≈ 6.09 µM) | > 100 | 1.56 (≈ 3.04 µM) | 50 (≈ 97.3 µM) | > 100 | > 100 | 1.56 (≈ 3.04 µM) | 25 (≈ 48.7 µM) | 6.25 (≈ 12.2 µM) | 1.56 (≈ 3.04 µM) | 1.56 (≈ 3.04 µM) | 0.78 (≈ 1.52 µM) | 1.56 (≈ 3.04 µM) | 0.78 (≈ 1.52 µM) | 100 (≈ 195 µM) | 12.5 (≈ 24.3 µM) | 0.78 (≈ 1.52 µM) | 100 (≈ 195 µM) | 25 (≈ 48.7 µM) | 3.13 (≈ 6.09 µM) | MIC [16]: 1.56 µg/mL (≈ 3.04 µM); MIC [17]: 1.56 µg/mL (≈ 3.04 µM)
CO/N=C(\C(=O)NC1C(=O)N2C(C(=O)O)=C(SCC3COCOC3)CS[C@H]12)c1csc(N)n1 (stereo partly drawn) [Compound No. 33, 7-[(Z)-2-(2-aminothiazol-4-yl)-2-methoxyiminoacetamido]-3-(1,3-dioxan-5-yl)methylthio-3-cephem-4-carboxylic acid] | 3.13 (≈ 6.07 µM) | > 100 | 0.78 (≈ 1.51 µM) | 50 (≈ 97 µM) | > 100 | > 100 | 0.78 (≈ 1.51 µM) | 50 (≈ 97 µM) | 6.25 (≈ 12.1 µM) | 0.78 (≈ 1.51 µM) | 0.78 (≈ 1.51 µM) | 0.1 (≈ 0.194 µM) | 0.39 (≈ 0.756 µM) | 0.39 (≈ 0.756 µM) | 100 (≈ 194 µM) | 6.25 (≈ 12.1 µM) | 0.2 (≈ 0.388 µM) | > 100 | 50 (≈ 97 µM) | 0.78 (≈ 1.51 µM) | MIC [16]: 0.78 µg/mL (≈ 1.51 µM); MIC [17]: 0.78 µg/mL (≈ 1.51 µM)
Nc1nc(/C(=N/O)C(=O)NC2C(=O)N3C(C(=O)O)=C(SCC4COCO4)CSC23)cs1 (stereo not drawn) [Compound No. 35] | 3.13 (≈ 6.42 µM) | > 100 | 1.56 (≈ 3.2 µM) | 50 (≈ 103 µM) | 12.5 (≈ 25.6 µM) | 12.5 (≈ 25.6 µM) | 0.39 (≈ 0.8 µM) | 50 (≈ 103 µM) | 12.5 (≈ 25.6 µM) | 0.39 (≈ 0.8 µM) | 1.56 (≈ 3.2 µM) | 0.05 (≈ 0.103 µM) | 0.39 (≈ 0.8 µM) | 0.2 (≈ 0.41 µM) | 50 (≈ 103 µM) | 100 (≈ 205 µM) | 12.5 (≈ 25.6 µM) | > 100 | > 100 | 12.5 (≈ 25.6 µM) | MIC [16]: 0.39 µg/mL (≈ 0.8 µM); MIC [17]: 0.2 µg/mL (≈ 0.41 µM)
Nc1nc(/C(=N/O)C(=O)NC2C(=O)N3C(C(=O)O)=C(SCC4CCOCC4)CS[C@H]23)cs1 (stereo partly drawn) [Compound No. 37, 7-[(Z)-2-(2-aminothiazol-4-yl)-2-hydroxyiminoacetamido]-3-(tetrahydropyran-4-yl)methylthio-3-cephem-4-carboxylic acid] | 6.25 (≈ 12.5 µM) | > 100 | 3.13 (≈ 6.27 µM) | 100 (≈ 200 µM) | 50 (≈ 100 µM) | 25 (≈ 50 µM) | 3.13 (≈ 6.27 µM) | 50 (≈ 100 µM) | 12.5 (≈ 25 µM) | 3.13 (≈ 6.27 µM) | 6.25 (≈ 12.5 µM) | 0.1 (≈ 0.2 µM) | 3.13 (≈ 6.27 µM) | 0.78 (≈ 1.56 µM) | 100 (≈ 200 µM) | 50 (≈ 100 µM) | 3.13 (≈ 6.27 µM) | > 100 | > 100 | 12.5 (≈ 25 µM) | MIC [16]: 0.39 µg/mL (≈ 0.781 µM); MIC [17]: 0.39 µg/mL (≈ 0.781 µM)
